The results in this text go back to patent publication US20250268902A1, “THERAPEUTIC METHODS” (CeleCor Therapeutics, Inc., priority 2021, published 2025).

Series [1] deals with agglutination of fibrinogen-coated beads by activated platelets. The series is described as follows: VerifyNow ADP+PGE1, iso-TRAP and base channel assays. It is filed as cell-based. On the procedure:
VerifyNow (VN) assays (Instrumentation Laboratories, Bedford, MA) are whole-blood, cartridge-based, and automated, and produce results within 15 minutes of blood draw. They are based on the agglutination of fibrinogen-coated beads by platelets activated by different agonists. Commercially available VN assays are designed to study the antiplatelet effects of aspirin (VN Aspirin cartridge; arachidonic acid activator) or P2Y12 antagonists (VN PRUTest cartridge and VN P2Y12 cartridge; ADP+PGE1 activator/inhibitor combination). The modified thrombin receptor activating peptide (iso-TRAP) is included in a separate reaction chamber (in addition to the ADP+PGE1 reaction chamber) in both the PRUTest and P2Y12 cartridges, and the P2Y12 cartridges further include a ‘BASE channel’ reaction chamber in which a PAR-1 activating peptide (iso-TRAP) at higher concentrations is combined with a PAR-4 activating peptide (PAR-4 AP) to achieve potent activation that can overcome the effects of P2Y12 antagonists.
VerifyNow ADP+PGE1, iso-TRAP, and base channel assays may be used to report Compound (1)-mediated inhibition in near real-time. VN assays can be used to help deconvolute antiplatelet effects of αIIbβ3 antagonists versus P2Y12 antagonists. […] The BASE channel assay was used to monitor the pharmacodynamic effects of Compound (1) independent of any P2Y12 inhibitors.

In the next series the test system is platelet aggregation. The series is described as follows: Light transmission aggregometry (LTA) with activators ADP, iso-TRAP, arachidonic acid. It is filed as cell-based. An excerpt: Light transmission aggregometry (LTA) is considered the gold standard assay to assess the potency of antiplatelet agents, such as Compound (I), because of its association with clinical outcomes.

For series [2], the system named is platelet aggregation to adenosine diphosphate (ADP; 20 μM). The series is described as follows: Inhibition of platelet aggregation (IPA) to ADP (20 μM) after SC injection in healthy volunteers and stable CAD patients on aspirin. Type of series: in vivo, human. The settings on record: for mean±SD IPA / IPA: 15 minutes after injection; for IPA: stable CAD patients on aspirin. Here is the method:
Sequentially, healthy volunteers (HV) and then patients with stable coronary disease (CAD) receiving aspirin received escalating doses of RUC-4 or placebo in a sentinel dose, randomized, blinded fashion. Inhibition of platelet aggregation (IPA) to adenosine diphosphate (ADP; 20 μM), RUC-4 blood levels, laboratory evaluations, and clinical assessments were made through 24 hours and at 7 days. Doses were increased until a dose that produced ≥80% IPA within 15 minutes, with return toward baseline within 4 hours was achieved. VerifyNow (VN) was also measured in a subset of patients with stable CAD.

Series [3] deals with PAR1/PAR4-induced platelet aggregation (BASE Channel). The series is described as follows: VerifyNow P2Y12 assay BASE channel platelet inhibition in STEMI patients (CEL-02 trial). It is filed as in vivo, human. The settings on record: for inhibition at 0.075 mg/kg / inhibition at 0.09 mg/kg / inhibition at 0.11 mg/kg: Homo sapiens, Platelet; for inhibition at 0.075 mg/kg: 0.075 mg/kg SC; for inhibition at 0.09 mg/kg: 0.090 mg/kg SC; for inhibition at 0.11 mg/kg: 0.11 mg/kg SC. An excerpt:
The open-label, dose escalating, phase 2, CEL-02 trial set out to assess the pharmacodynamics (PD), pharmacokinetics (PK), safety and tolerability of RUC-4 in STEMI patients treated with aspirin and ticagrelor in the ambulance undergoing primary percutaneous coronary intervention (pPCI). STEMI patients presenting for pPCI at the St. Antonius Hospital Nieuwegein, the Netherlands, received a single, weight-adjusted, subcutaneous injection of RUC-4 before coronary angiography. After assessment of every 8 evaluable patients, the dose was escalated to reach an optimal dose for platelet inhibition. All patients were concomitantly treated with aspirin, ticagrelor and unfractionated heparin (UFH)(5000 IU) in the ambulance. Additional UFH during PCI was only administered when ACT was <200 seconds (2500-5000 IU). Blood samples for (PD) and (PK) were taken before RUC-4 administration, and 15, 45, 60, 90, 120, 180, and 240 minutes thereafter. Platelet inhibition was measured by the VerifyNow P2Y12 assay BASE channel which uses a protease activated receptor-1 (PAR-1) peptide (iso-TRAP) and a PAR-4 activating peptide as agonists, overriding platelet inhibition by oral P2Y12 inhibitors.

Series [4] concerns platelets in whole blood (VN isoTRAP and ADP+PGE1 channels). The series is described as follows: In vitro VerifyNow IIb/IIIa and PRU cartridges in whole blood from healthy volunteers. It is filed as cell-based, human. The following applies: 30-900 nM, 10 minutes at room temperature. On the procedure: Whole blood anticoagulated with either sodium citrate (0.32%) or PPACK ([…]) from healthy volunteers who were either taking or not taking daily aspirin was treated in vitro with Compound (I) (RUC-4) to achieve final whole blood concentrations between 30 and 900 nM. Blood was incubated for 10 minutes at room temperature and then tested with either the IIb/IIIa or PRU cartridge.

The structures appear in SMILES notation. Where two headings read alike, the source gives them in different places. Some results are limits rather than exact numbers.

On to `CC(=O)Oc1ccccc1C(=O)O` [aspirin], for which, in series [1], the “inhibition of VN ADP+PGE1 assay” value is “does not inhibit”, the “inhibition of VN base channel assay” value is “does not inhibit” and the “inhibition of VN iso-TRAP assay” value is given as “does not inhibit”. Further, in the series with platelet aggregation, the “inhibition of ADP induced LTA” value is on record as “does not significantly inhibit” and the “inhibition of iso-TRAP induced LTA” value was “does not significantly inhibit”. For the same compound, in series [2] (subjects given RUC-4 SC), the “effect of aspirin on IPA” value was “did not affect” and the “effect of aspirin on RUC-4 blood levels” value is “did not affect”.
Turning to `NCC(=O)Nc1cncc(-c2nn3c(=O)cc(N4CCNCC4)nc3s2)c1` [RUC-4], the inhibition at 0.075 mg/kg stood at 83.7% in series [3] (0.25 h, 15 minutes post-dose, n=8, with aspirin, ticagrelor, UFH, read-out: maximal platelet inhibition, mean [SD]) and 17.9% in series [3] (2 h, 120 minutes post-dose, n=8, read-out: platelet inhibition, mean (SD)). Also, the inhibition at 0.09 mg/kg in series [3] (0.25 h, 15 minutes post-dose, n=9, with aspirin, ticagrelor, UFH, read-out: maximal platelet inhibition, mean [SD]) turned out to be 89.6%; in series [3] (2 h, 120 minutes post-dose, n=9, read-out: platelet inhibition, mean (SD)) it was 22.6%. Moreover, the inhibition at 0.11 mg/kg in series [3] (0.25 h, 15 minutes post-dose, n=10, with aspirin, ticagrelor, UFH, read-out: maximal platelet inhibition, mean [SD]) is 92.5%; in series [3] (2 h, 120 minutes post-dose, n=10, read-out: platelet inhibition, mean (SD)) it was 31.6%. The “time to maximal platelet function inhibition” value in series [3] (single-dose subcutaneous) was ≤ 15 min. In addition, the “time to return of platelet function” value in series [3] (single-dose subcutaneous) is ≤ 120 min. In series [4] (IIb/IIIa and PRU cartridges), the “inhibition of the VN isoTRAP channels” value is recorded as “dose-dependent inhibition”. Also, the “inhibition of the VN ADP+PGE1 channel” value in series [4] (PRU cartridge) is on record as “dose-dependent inhibition”. In addition, in series [1], the “inhibition of VN ADP+PGE1 assay” value was “dramatically inhibits”. The “inhibition of VN base channel assay” value in series [1] was “dramatically inhibits”. The “inhibition of VN iso-TRAP assay” value in series [1] is on record as “dramatically inhibits”. Moreover, in the series on platelet aggregation, the “inhibition of AA (arachidonic acid) induced LTA” value was “dramatically inhibits”. Moreover, the “inhibition of ADP induced LTA” value with platelet aggregation is listed as “dramatically inhibits”. In addition, the “mean±SD IPA” value in series [2] (healthy volunteers, 0.05 mg/kg SC, n=6) was found to be 71.8±15.0%; in series [2] (healthy volunteers, 0.075 mg/kg SC, n=6) it was 84.7±16.7%. The “time over which IPA diminished” value in series [2] (healthy volunteers, in all cases, after SC injection) lay in the range of 90 to 120 min. Further, the IPA came to 53.6±17.0% in series [2] (0.04 mg/kg SC, n=2); 76.9±10.6% in series [2] (0.05 mg/kg SC, n=6); 88.9±12.7% in series [2] (0.075 mg/kg SC, n=18).
As to `CCCSc1nc(N[C@@H]2C[C@H]2c2ccc(F)c(F)c2)c2nnn([C@@H]3C[C@H](OCCO)[C@@H](O)[C@H]3O)c2n1` [ticagrelor], in series [1], the “inhibition of VN ADP+PGE1 assay” value was “dramatically inhibits”, the “inhibition of VN base channel assay” value was “does not inhibit” and the “inhibition of VN iso-TRAP assay” value was “slightly inhibits”. For the same compound, the “inhibition of iso-TRAP induced LTA” value in the series with platelet aggregation is “slightly inhibits”.

One may read the inhibition as the share of the control response that was lost under treatment.
